Results from patent US6685617B1, “Inhibitors of α4β1 mediated cell adhesion” (Pharmacia & Upjohn Company, priority 1998, dated 2004).
Where a name gives a salt, the structure may show the parent alone.

How the values were obtained:
[1] = target: T1, α4β1 integrin (Jurkat T-cell adhesion to IL-1 stimulated endothelial cell monolayers) (Homo sapiens, UniProt P05556+P13612); assay: Jurkat-endothelial cell adhesion assay (Jurkat EC); format: cell-based; settings: Jurkat cells on IL-1 stimulated human umbilical vein endothelial cells; read-out: JK/EC (Jurkat EC Assay IC50 value range)
T1 construct: a T-cell line, Jurkat, known to express the α4β1 integrin; host or cells: Jurkat T-cell line
T1 sequence (P13612 34-1032): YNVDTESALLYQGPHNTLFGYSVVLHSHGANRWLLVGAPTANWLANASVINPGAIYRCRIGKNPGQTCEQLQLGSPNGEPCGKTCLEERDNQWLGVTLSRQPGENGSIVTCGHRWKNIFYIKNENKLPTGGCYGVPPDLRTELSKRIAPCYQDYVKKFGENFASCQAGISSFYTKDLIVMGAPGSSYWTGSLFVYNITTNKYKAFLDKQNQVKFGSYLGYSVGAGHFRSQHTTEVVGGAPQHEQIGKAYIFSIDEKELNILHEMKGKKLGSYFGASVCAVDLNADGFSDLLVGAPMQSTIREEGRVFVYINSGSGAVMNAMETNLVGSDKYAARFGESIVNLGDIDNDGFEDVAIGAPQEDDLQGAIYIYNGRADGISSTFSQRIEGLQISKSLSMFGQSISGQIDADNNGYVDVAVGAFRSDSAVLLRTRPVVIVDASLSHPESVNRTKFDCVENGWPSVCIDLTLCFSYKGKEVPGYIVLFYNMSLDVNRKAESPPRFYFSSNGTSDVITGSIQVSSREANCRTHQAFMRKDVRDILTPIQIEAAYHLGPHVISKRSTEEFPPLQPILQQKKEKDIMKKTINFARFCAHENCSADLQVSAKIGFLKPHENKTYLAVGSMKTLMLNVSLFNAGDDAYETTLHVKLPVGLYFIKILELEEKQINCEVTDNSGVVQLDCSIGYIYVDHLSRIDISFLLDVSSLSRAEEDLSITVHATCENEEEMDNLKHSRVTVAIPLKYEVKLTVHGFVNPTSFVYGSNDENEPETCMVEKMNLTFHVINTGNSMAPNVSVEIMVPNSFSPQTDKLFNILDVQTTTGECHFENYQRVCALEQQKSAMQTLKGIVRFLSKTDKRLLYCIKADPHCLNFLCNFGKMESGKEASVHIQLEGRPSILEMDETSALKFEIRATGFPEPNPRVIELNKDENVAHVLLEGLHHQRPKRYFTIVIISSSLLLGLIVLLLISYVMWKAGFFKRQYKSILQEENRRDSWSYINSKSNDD
T1 sequence (P05556 21-798): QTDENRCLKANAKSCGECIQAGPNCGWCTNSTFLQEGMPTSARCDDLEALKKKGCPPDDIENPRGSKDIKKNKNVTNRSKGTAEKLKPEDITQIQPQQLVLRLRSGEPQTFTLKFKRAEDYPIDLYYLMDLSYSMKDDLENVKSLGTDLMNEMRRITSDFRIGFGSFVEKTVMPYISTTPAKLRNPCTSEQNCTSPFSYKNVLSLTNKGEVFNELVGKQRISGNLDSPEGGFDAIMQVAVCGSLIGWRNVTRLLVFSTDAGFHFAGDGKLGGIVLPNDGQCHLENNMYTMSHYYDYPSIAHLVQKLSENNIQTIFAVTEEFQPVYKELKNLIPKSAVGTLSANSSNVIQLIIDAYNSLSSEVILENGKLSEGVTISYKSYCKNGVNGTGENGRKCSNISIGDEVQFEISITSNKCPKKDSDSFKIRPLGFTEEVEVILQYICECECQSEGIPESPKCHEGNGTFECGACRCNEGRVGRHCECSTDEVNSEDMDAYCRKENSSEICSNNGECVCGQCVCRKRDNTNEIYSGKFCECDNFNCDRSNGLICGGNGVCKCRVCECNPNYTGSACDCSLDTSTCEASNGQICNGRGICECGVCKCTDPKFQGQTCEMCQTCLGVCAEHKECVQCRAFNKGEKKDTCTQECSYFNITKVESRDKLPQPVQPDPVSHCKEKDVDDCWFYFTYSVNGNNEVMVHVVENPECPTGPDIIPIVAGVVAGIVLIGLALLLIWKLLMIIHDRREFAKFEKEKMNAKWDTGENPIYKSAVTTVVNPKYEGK
How it was run: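 Adhesion was expressed as percent of compound-free fluorescence after 20 min at 37° C (following 5 min settling on ice) of BCECF-loaded Jurkat T cells on washed HUVEC monolayers. The endothelium, passage 6 or lower, had received 0.1 ng/ml recombinant IL-1 for 4 hr at 37° C; compound was premixed with the T cells, typically at 100, 20, 5 and 1.25 μM.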

[2] = target: T2, α4β1 integrin (Jurkat cell adhesion to immobilized CS-1 derived peptide CLHPGEILDVPST) (Homo sapiens, UniProt P05556+P13612); assay: Jurkat-CS-1 assay; format: cell-based; settings: Jurkat cells on CS-1 peptide coated plates; read-out: JK/CS-1 (Jurkat CS-1 Assay IC50 value range)
T2 construct: 100 μl of Jurkat cells (2.5×10^6 cells/ml) in DMEM plus BSA; host or cells: Jurkat T-cell line
T2 sequence (P13612 34-1032): as the sequence (P13612 34-1032) above
T2 sequence (P05556 21-798): as the sequence (P05556 21-798) above
How it was run: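 CS-1 peptide was SPDP-crosslinked onto HSA-coated plates and blocked with BSA. Jurkat cells (2.5×10^6 cells/ml) in DMEM/BSA were mixed with compound, generally at 100, 20, 5 and 1.25 μM, and allowed to adhere for 1 hr at 37° C. Bound cells were fixed, stained with toluidine blue and quantified by OD590.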

SMILES	IC50 [1]	IC50 [2]
CN1C(=O)CCC1(CCC(=O)O)CCC(=O)N[C@@H](Cc1ccc(OCc2c(Cl)cccc2Cl)cc1)C(=O)O (stereo partly drawn) [Example 107, 2-[3-[[(1S)-1-Carboxy-2-[4-[(2,6-dichlorophenyl)methoxy]phenyl]ethyl]amino]-3-oxo-propyl]-1-methyl-5-oxo-2-pyrrolidinepropanoic Acid]	≥ 1000 nM	50 to 750 nM
CC(C)=CCN1C(=O)CCC1(CCC(=O)O)CCC(=O)N[C@@H](Cc1ccc(OCc2c(Cl)cccc2Cl)cc1)C(=O)O (stereo partly drawn) [Example 109, 2-[3-[[(1S)-1-Carboxy-2-[4-[(2,6-dichlorophenyl)methoxy]phenyl]ethyl]amino]-3-oxo-propyl]-1-(3-methyl-2-butenyl)-5-oxo-2-pyrrolidinepropanoic Acid]	≥ 1000 nM	≥ 750 nM
CN1C(=O)CCC1(CCC(=O)O)CCC(=O)N[C@@H](Cc1ccc(NC(=O)c2c(Cl)cccc2Cl)cc1)C(=O)O (stereo partly drawn) [Example 111, 2-[3-[[(1S)-1-Carboxy-2-[4-[(2,6-dichlorobenzoyl)amino]phenyl]ethyl]amino]-3-oxo-propyl]-1-methyl-5-oxo-2-pyrrolidinepropanoic Acid]	250 to 1000 nM	50 to 750 nM
O=C(O)CCC1(CCC(=O)N[C@@H](Cc2ccc(OCc3c(Cl)cccc3Cl)cc2)C(=O)O)CCC(=O)N1 (stereo partly drawn) [Example 113, 2-[3-[[(1S)-1-Carboxy-2-[4-[(2,6-dichlorophenyl)methoxy]phenyl]ethyl]amino]-3-oxo-propyl]-5-oxo-2-pyrrolidinepropanoic Acid]	≥ 1000 nM	50 to 750 nM
COC(=O)CCC1(CCC(=O)N[C@@H](Cc2ccc(NC(=O)c3c(Cl)cccc3Cl)cc2)C(=O)OC)CCC(=O)N1 (stereo partly drawn) [Example 114, 2-[3-[[(1S)-1-[[4-[(2,6-Dichlorobenzoyl)amino]phenyl]methyl]-2-methoxy-2-oxoethyl]amino]-3-oxopropyl]-5-oxo-2-pyrrolidinepropanoic Acid Methyl Ester]	≥ 1000 nM	≥ 750 nM
O=C(O)CCC1(CCC(=O)N[C@@H](Cc2ccc(NC(=O)c3c(Cl)cccc3Cl)cc2)C(=O)O)CCC(=O)N1 (some centres unmarked) [Example 115]	≥ 1000 nM	50 to 750 nM
COC(=O)[C@H](Cc1ccc(OCc2c(Cl)cccc2Cl)cc1)NC(=O)CCC1(C(=O)O)CCC(=O)N1 (stereo partly drawn) [Example 116, 2-[3-[[(1S)-1-[[4-[(2,6-Dichlorophenyl)methoxy]phenyl]methyl]-2-methoxy-2-oxoethyl]amino]-3-oxopropyl]-5-oxoproline]	≥ 1000 nM	≥ 750 nM
O=C(CCC1(C(=O)O)CCC(=O)N1)N[C@@H](Cc1ccc(OCc2c(Cl)cccc2Cl)cc1)C(=O)O (stereo partly drawn) [Example 117, 2-[3-[[(1S)-1-Carboxy-2-[4-[(2,6-dichlorophenyl)methoxy]phenyl]ethyl]amino]-3-oxo-propyl]-5-oxoproline]	≥ 1000 nM	50 to 750 nM
CC(C)(C)OC(=O)N1CSC[C@@H]1C(=O)N[C@@H](Cc1ccc(OCc2c(Cl)cccc2Cl)c(Cl)n1)C(=O)O [Example 119, [S-(R*,R*)]-4-[[1-Carboxy-2-[[2-Chloro-3-[(2,6-dichlorophenyl)methoxy]-6-pyridyl]ethyl]amino]carbonyl]-3-thiazolidinecarboxylic Acid (1,1-Dimethylethyl)ester]	≥ 1000 nM	≥ 750 nM
CC(C)(C)OC(=O)N1CSCC1C(=O)NC(Cc1ccc(OCc2c(Cl)cccc2Cl)cn1)C(=O)O (stereo not drawn) [Example 121, [S-(R*,R*)]-4-[[[1-Carboxy-2-[3-[(2,6-dihlorophenyl)methoxy]-6-pyridyl]ethyl]amino]carbonyl]-3-thiazolidinecarboxylic Acid (1,1-Dimethylethyl)ester]	≥ 1000 nM	50 to 750 nM
CC(C)(C)OC(=O)N1CSC[C@@H]1C(=O)N[C@@H](Cc1ccc(N(C(=O)c2c(Cl)cccc2Cl)C(=O)c2c(Cl)cccc2Cl)nc1)C(=O)O [Example 123, [S-(R*,R*)]-4-[[[[1-Carboxy-2-[2-[[bis-(2,6-dichlorobenzoyl)]amino]-5-pyridyl]]ethyl]amino]carbonyl]-3-thiazolidinecarboxylic Acid (1,1-Dimethylethyl)ester]	≥ 1000 nM	≥ 750 nM
CC(C)(C)OC(=O)N1CC[C@H]1C(=O)N[C@@H](Cc1ccc(NC(=O)c2c(Cl)cccc2Cl)cc1)C(=O)O [Example 143, [2S-(R*,R*)]-2-[[[1-Carboxy-2-[4-[(2,6-dichlorobenzoyl)amino]phenyl]ethyl]amino]-carbonyl]-1-azetidinecarboxylic Acid 1-(1,1-Dimethylethyl)ester]	≥ 1000 nM	50 to 750 nM
O=C(Nc1ccc(C[C@H](NC(=O)[C@@H]2CCN2)C(=O)O)cc1)c1c(Cl)cccc1Cl [Example 144, N-[[(2S)-2-Azetidinyl]carbonyl]-4-[(2,6-dichlorobenzoyl)amino]-L-phenylalanine Trifluoroacetic acid Salt]	≥ 1000 nM	50 to 750 nM
CC(C)(C)OC(=O)N1CC(C(=O)N[C@@H](Cc2ccc(NC(=O)c3c(Cl)cccc3Cl)cc2)C(=O)O)C1 [Example 146]	≥ 1000 nM	≥ 750 nM
O=C(Nc1ccc(C[C@H](NC(=O)C2CNC2)C(=O)O)cc1)c1c(Cl)cccc1Cl [Example 147, N-[[3-Azetidinyl]carbonyl]-4-[(2,6-dichlorobenzoyl)amino]-L-phenylalanine, Trifluoroacetic Acid Salt]	≥ 1000 nM	≥ 750 nM
O=C(O)CCC(=O)N1CCCCC1C(=O)N[C@@H](Cc1ccc(NC(=O)c2c(Cl)cccc2Cl)cc1)C(=O)O (some centres unmarked) [Example 167]	250 to 1000 nM	50 to 750 nM

Continued, values first:

IC50 [1]	IC50 [2]	SMILES
≥ 1000 nM	50 to 750 nM	N#CCCC(=O)N1CCSC[C@H]1C(=O)N[C@@H](Cc1ccc(NC(=O)c2c(Cl)cccc2Cl)cc1)C(=O)O [Example 104, N-[[(3R)-4-(3-Cyano-1-oxopropyl)-3-thiomorpholinyl]carbonyl]-4-[[2,6-dichlorobenzoyl)amino]-L-phenylalanine]
≥ 1000 nM	≥ 750 nM	COC(=O)[C@H](Cc1ccc(NC(=O)c2c(Cl)cccc2Cl)cc1)NC(=O)[C@@H]1COCN1C(=O)OCc1ccccc1 [Example 124, [S-(R*,R*)]-4-[[[1-[[4-[(2,6-Dichlorobenzoyl)amino]phenyl]methyl]-2-methoxy-2-oxoethyl]amino]carbonyl]-3-oxazolidinecarboxylic Acid 3-Phenylmethyl Ester]
250 to 1000 nM	50 to 750 nM	O=C(Nc1ccc(C[C@H](NC(=O)[C@@H]2COCN2C(=O)OCc2ccccc2)C(=O)O)cc1)c1c(Cl)cccc1Cl [Example 125, [S-(R*,R*)]-4-[[[1-Carboxy-2-[4-[(2,6-dichlorobenzoyl)amino]phenyl]ethyl]amino]-carbonyl]-3-oxazolidinecarboxylic Acid 3-Phenylmethyl Ester]
≥ 1000 nM	≥ 750 nM	COC(=O)[C@H](Cc1ccc(NC(=O)c2c(Cl)cccc2Cl)cc1)NC(=O)[C@H]1COCN1C(=O)OCc1ccccc1 [Example 126, [R-(R*S*)]-4-[[[1-[[4-[(2,6-Dichlorobenzoyl)amino]phenyl]methyl]-2-methoxy-2-oxoethyl]amino]carbonyl]-3-oxazolidinecarboxylic Acid 3-Phenylmethyl Ester]
≤ 250 nM	50 to 750 nM	O=C(Nc1ccc(C[C@H](NC(=O)[C@H]2COCN2C(=O)OCc2ccccc2)C(=O)O)cc1)c1c(Cl)cccc1Cl [Example 127, [R-(R*,S*)]-4-[[[1-Carboxy-2-[4-[(2,6-dichlorobenzoyl)amino]phenyl]ethyl]amino]-carbonyl]-3-oxazolidinecarboxylic Acid 3-(Phenylmethyl)ester]
250 to 1000 nM	50 to 750 nM	C[C@@H](c1ccccc1)N1[C@H](C(=O)O)C[C@H]1C(=O)N[C@@H](Cc1ccc(NC(=O)c2c(Cl)cccc2Cl)cc1)C(=O)O [Example 129, [2S-[1(R*),2α,4β(R*)]]-4-[[[1-Carboxy-2-[4-[(2,6-dichlorobenzoyl)amino]phenyl]ethyl]-amino]carbonyl]-1-(1-phenylethyl)-2-azetidinecarboxylic Acid Dilithium Salt]
250 to 1000 nM	50 to 750 nM	C[C@H](c1ccccc1)N1[C@H](C(=O)O)C[C@H]1C(=O)N[C@@H](Cc1ccc(NC(=O)c2c(Cl)cccc2Cl)cc1)C(=O)O [Example 137, [2S-[1(S*),2α,4β(R*)]]-4-[[[1-Carboxy-2-[4-[(2,6-dichlorobenzoyl)amino]phenyl]ethyl]-amino]carbonyl]-1-(1-phenylethyl)-2-azetidinecarboxylic Acid]
≥ 1000 nM	50 to 750 nM	CCOC(=O)N1[C@@H](C(=O)O)C[C@@H]1C(=O)N[C@@H](Cc1ccc(NC(=O)c2c(Cl)cccc2Cl)cc1)C(=O)O [Example 141, [2R-(2α,4β(S*)]-4-[[[1-Carboxy-2-[4-[(2,6-dichlorobenzoyl)amino]phenyl]ethyl]-amino]-carbonyl]-1,2-azetidinedicarboxylic Acid 1-Ethyl Ester]
250 to 1000 nM	≤ 50 nM	CCOC(=O)N1CSC[C@@H]1C(=O)N[C@@H](Cc1ccc(NC(=O)c2c(Cl)cccc2Cl)cc1)C(=O)OCc1ccncc1 [Example 154, [S-(R*,R*) 4-[[[1-[4-[(2,6-Dichlorobenzoyl)amino]phenyl]methyl]-2-[(4-pyridinyl)methoxy]-2-oxoethyl]amino]carbonyl]-3-thiazolidinecarboxylic Acid 3-Ethyl Ester]
